According to PubChem BioAssay (NCI):
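Each compound was tested at five concentrations against cells in 96-well plates for 48 hours. TGI: concentration producing complete growth inhibition.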

Columns and labels:
Assay in all cases: NCI tumour cell line growth inhibition, 48 h
[1] = system: A498 renal
[2] = system: A549 NSCLC
[3] = system: CAKI-1 renal
[4] = system: CCRF-CEM leukemia
[5] = system: COLO 205 colon
[6] = system: DLD-1 colon
[7] = system: DMS 114 small cell lung
[8] = system: DMS 273 small cell lung
[9] = system: EKVX NSCLC
[10] = system: HCC-2998 colon
[11] = system: HCT-116 colon
[12] = system: HCT-15 colon
[13] = system: HL-60(TB) leukemia
[14] = system: HOP-18 NSCLC
[15] = system: HOP-62 NSCLC
[16] = system: HOP-92 NSCLC
[17] = system: HT29 colon
[18] = system: IGROV1 ovarian
[19] = system: K-562 leukemia
[20] = system: KM12 colon
[21] = system: KM20L2 colon
[22] = system: LOX IMVI melanoma
[23] = system: M19-MEL melanoma
[24] = system: MALME-3M melanoma
[25] = system: MCF7 breast
[26] = system: MOLT-4 leukemia
[27] = system: NCI-H226 lung
[28] = system: NCI-H23 lung
[29] = system: NCI-H460 lung
[30] = system: NCI-H522 lung
[31] = system: NCI/ADR-RES ovarian
[32] = system: OVCAR-3 ovarian
[33] = system: OVCAR-4 ovarian
[34] = system: OVCAR-5 ovarian
[35] = system: OVCAR-8 ovarian
[36] = system: P388 leukemia
[37] = system: P388/ADR leukemia
[38] = system: RPMI-8226 leukemia
[39] = system: RXF 393 renal
[40] = system: SF-268 CNS
[41] = system: SF-295 CNS
[42] = system: SF-539 CNS
[43] = system: SK-MEL-2 melanoma
[44] = system: SK-MEL-28 melanoma
[45] = system: SK-MEL-5 melanoma
[46] = system: SK-OV-3 ovarian
[47] = system: SN12C renal
[48] = system: SN12K1 renal
[49] = system: SNB-19 CNS
[50] = system: SNB-75 CNS
[51] = system: SNB-78 CNS
[52] = system: SW-620 colon
[53] = system: U251 CNS
[54] = system: UACC-257 melanoma
[55] = system: UACC-62 melanoma
[56] = system: UO-31 renal
[57] = system: XF 498 CNS

CC1=C(O)C(=O)[C@@H]2O[C@@H]2C1=O was tested, and the TGI [1] was 17.1 µM, the TGI [2] was 99 µM and the TGI [3] was 16.7 µM. The TGI [4] was 8.09 µM, the TGI [5] was 16 µM and the TGI [6] was 21.7 µM. It also gave a TGI [7] of 28.4 µM, a TGI [8] of 62.3 µM and a TGI [9] of 33.9 µM. The TGI [10] was 35.6 µM, the TGI [11] was 27.8 µM and the TGI [12] was 22 µM. The TGI [13] was 8.59 µM, the TGI [14] was 30.6 µM and the TGI [15] was 100 µM. The TGI [16] was 17.1 µM, the TGI [17] was 36.6 µM and the TGI [18] was 48.4 µM. For the same molecule, the TGI [19] was 42.7 µM, the TGI [20] was 27.3 µM and the TGI [21] was 49.4 µM. For the same molecule, the TGI [22] was 26.8 µM, the TGI [23] was 28.9 µM and the TGI [24] was 17.2 µM. The TGI [25] was 31.7 µM, the TGI [26] was 10.9 µM and the TGI [27] was 37 µM. The TGI [28] was 35.8 µM, the TGI [29] was 47.4 µM and the TGI [30] was 4.56 µM. For the same molecule, the TGI [31] was 44.9 µM, the TGI [32] was 17.4 µM and the TGI [33] was 28.5 µM. For the same molecule, the TGI [34] was 33.9 µM, the TGI [35] was 24.7 µM and the TGI [36] was 4.99 µM. The TGI [37] was 32.9 µM, the TGI [38] was 16.5 µM and the TGI [39] was 7.88 µM. It also gave a TGI [40] of 30.5 µM, a TGI [41] of 72.1 µM and a TGI [42] of 41.9 µM. It also gave a TGI [43] of 38.1 µM, a TGI [44] of 16.7 µM and a TGI [45] of 30.1 µM. For the same molecule, the TGI [46] was 107 µM, the TGI [47] was 52.4 µM and the TGI [48] was 32.3 µM. The TGI [49] was 115 µM, the TGI [50] was 31.9 µM and the TGI [51] was 40.9 µM. The TGI [52] was 13.4 µM, the TGI [53] was 46.3 µM and the TGI [54] was 23.9 µM. The TGI [55] was 21.7 µM, the TGI [56] was 54.1 µM and the TGI [57] was 23.3 µM.
